Data: US8337903B2, “Antitumoral agents with a benzophenanthridine structure and formulations containing them” (Indena S.p.A., priority 2008, dated 2012)

Legend:
[1] = tested on: melanoma stem cells; test: in vitro inhibiting activity towards melanoma stem cells; assay type: cell-based; conditions: concentration of 200 ng/ml
Excerpt: (§1) Its behaviour towards other oncological stem cells is identical. These alkaloids can consequently be considered new-generation antitumoral agents, which are able to treat human tumors effectively. For tumors of the colon, liver, pancreas and cervix the most appropriate form is the salt with luteic acid dispersed in a suitable vehicle, whereas for the treatment of skin tumors such as melanoma, the salt with a phosphatidic acid can advantageously be administered topically directly to the area affected by the tumor.

[2] = tested on: colon stem cells; test: in vitro inhibiting activity towards colon stem cells; assay type: cell-based; conditions: concentration of 200 ng/ml
Excerpt: as §1

[3] = tested on: oropharynx, head and neck tumors, melanoma and cervical tumors; test: treatment of oropharynx, head and neck tumors, melanoma and cervical tumors; assay type: in vivo; conditions: oral and topical administration; compared with the unsalified alkaloid
Excerpt: The product most suitable for oral and topical administration is the salt of sanguinarine with luteic acid.

In the case of “luteic acid sanguinarine salt [salt of sanguinarine with luteic acid]”, the “inhibiting activity towards melanoma stem cells” value [1] is reported as “potent inhibiting activity”, the “inhibiting activity towards colon stem cells” value [2] is reported as “potent inhibiting activity” and the “effectiveness in the treatment of tumors” value [3] is reported as “particularly effective”.
